Test results reported in US10179125B2, “Substituted pyridines as bromodomain inhibitors” (Zenith Epigenetics Ltd., priority 2014, dated 2019).

Columns and labels:
[1] = molecular target: T1, Brd4 bromodomain 1 (BRD4(1)) (Homo sapiens, UniProt O60885); assay: Inhibition of tetra-acetylated histone H4 binding to BET bromodomain (HTRF/FRET); conditions: His-tagged bromodomain 200 nM, biotinylated tetra-acetylated histone H4 peptide, 2 h room temperature
T1 construct: made in house; host or cells: E. coli BL21(DE3)
Method: Proteins were cloned and overexpressed with a N-terminal 6×His tag, then purified by nickel affinity followed by size exclusion chromatography. Briefly, E. coli BL21(DE3) cells were transformed with a recombinant expression vector encoding N-terminally Nickel affinity tagged bromodomains from Brd2, Brd3, Brd4. Cell cultures were incubated at 37° C. with shaking to the appropriate density and induced overnight with IPTG. The supernatant of lysed cells was loaded onto Ni-IDA column for purification, Eluted protein was pooled, concentrated and further purified by size exclusion chromatography. Fractions representing monomeric protein were pooled, concentrated, aliquoted, and frozen at −80° C. for use in subsequent experiments.
Binding of tetra-acetylated histone H4 and BET bromodomains was confirmed by a Homogenous Time Resolved Fluorescence Resonance Energy Transfer (HTRF®) method, N-terminally His-tagged bromodomains (200 nM) and biotinylated tetra-acetylated histone H4 peptide (25-50 nM, Millipore) were incubated in the presence of Europium Cryptate-labeled streptavidin (Cisbio Cat, #610SAKLB) and XL665-labeled monoclonal anti-His antibody (Cisbio Cat.1461HISXLB) in a white 96 well microtiter plate (Greiner). For inhibition assays, serially diluted test compound was added to these reactions in a 0.2% final concentration of DMSO. Duplicate wells were used for each concentration tested. Final buffer concentrations were 30 mM HEPES pH 7.4, 30 mM NaCl, 0.3 mM CHAPS, 20 mM phosphate pH 7.0, 320 mM KF, 0.08% BSA. After a 2 h incubation at room temperature, fluorescence was measured at 665 and 620 nm with a SynergyH4 plate reader (Biotek). The binding inhibitory activity was shown by a decrease in […] relative to 620 nm fluorescence. IC50 values were determined from a dose response curve.

[2] = tested on: cMYC; assay: Inhibition of cMYC expression in MV4-11 cells (real-time PCR); format: cell-based, Human; conditions: 3 h, cMYC mRNA; for IC50: Homo sapiens, read-out: c-myc activity
Method: MV4-11 cells (CRL-9591) were plated at a density of 2.5×10^4 cells per well in 96 well U-bottom plates and treated with increasing concentrations of test compound or DMSO (0.1%) in IMDM media containing 10% FBS and penicillin/streptomycin, and incubated for 3 h at 37° C. Triplicate wells were used for each concentration. Cells were pelleted by centrifugation and harvested using the mRNA Catcher PLUS kit according to manufacturer's instructions. The eluted mRNA isolated was then used in a one-step quantitative real-time PCR reaction, using components of the RNA UltraSense™ One-Step Kit (Life Technologies) together with Applied Biosystems TaqMan® primer-probes for cMYC and Cyclophilin, Real-time PCR plates were run on a ViiA™7 real time PCR machine (Applied Biosystems), data was analyzed, normalizing the Ct values for cMYC to an internal control, prior to determining the fold expression of each sample, relative to the control.

[3] = tested on: Human AML MV-4-11 cells; assay: Inhibition of cell proliferation in MV4-11 cells (CellTiter Aqueous One); format: cell-based; conditions: 72 h; for IC50: Homo sapiens
Method: MV4-11 cells (CRL-9591) were plated at a density of 5×10^4 cells per well in 96 well flat bottom plates and treated with increasing concentrations of test compound or DMSO (0.1%) in IMDM media containing 10% FBS and penicillin/streptomycin. Triplicate wells were used for each concentration and a well containing only media was used as a control. Plates were incubated at 37° C., 5% CO2 for 72 h before adding 20 μL of the CellTiter Aqueous One Solution (Promega) to each well and incubated at 37° C., 5% CO2 for an additional 3-4 h. The absorbance was read at 490 nm in a spectrophotometer and the percentage of cell titer relative to DMSO-treated cells was calculated after correcting for background by subtracting the blank well's signal. IC50 values were calculated using the GraphPad Prism software.

[4] = tested on: hIL-6; assay: Inhibition of hIL-6 mRNA transcription in LPS-stimulated U937 cells; format: cell-based, Human; conditions: 1 h pretreatment, LPS 3 h; for IC50: Homo sapiens, U-937, PMA-differentiated U937 cells, read-out: IL-6 activity; for IL-6 activity: PMA-differentiated U937 cells
Method: Human leukemic monocyte lymphoma U937 cells (CRL-1593.2) were plated at a density of 3.2×10^4 cells per well in a 96-well plate in 100 μL RPMI-1640 containing 10% FBS and penicillin/streptomycin, and differentiated into macrophages for 3 days in 60 ng/mL PMA ([…]) at 37° C. in 5% CO2 prior to the addition of compound. The cells were pretreated for 1 h with increasing concentrations of test compound in 0.1% DMSO prior to stimulation with 1 ug/mL lipopolysaccharide from Escherichia coli. Triplicate wells were used for each concentration. The cells were incubated at 37° C., 5% CO2 for 3 h before the cells were harvested. At time of harvest, media was removed and cells were rinsed in 200 μL PBS. Cells were harvested using the mRNA Catcher PLUS kit according to manufacturer's instructions. The eluted mRNA was then used in a one-step quantitative real-time PCR reaction using components of the RNA UltraSense™ One-Step Kit (Life Technologies) together with Applied Biosystems TaqMan® primer-probes for hIL-6 and Cyclophilin. Real-time PCR plates were run on a ViiA™7 real time PCR machine (Applied Biosystems), data was analyzed, normalizing the Ct values for hIL-6 to an internal control, prior to determining the fold expression of each sample, relative to the control.

| SMILES | IC50 [1] [nM] | IC50 [2] [nM] | IC50 [3] [nM] | IC50 [4] [nM] | c-myc activity [2] | Cell Proliferation activity [3] | IL-6 activity [4] |
| --- | --- | --- | --- | --- | --- | --- | --- |
| CCOc1ncc(-c2c(C)noc2C)cc1NCc1ccccc1 [Example 39, N-benzyl-5-(3,5-dimethylisoxazol-4-yl)-2-ethoxypyridin-3-amine] | ≤ 300 | 300 to 3000 | 300 to 3000 | 300 to 3000 | – | – | – |
| COc1ncc(-c2c(C)noc2C)cc1OCc1ccccn1 [Example 40, 4-(6-methoxy-5-(pyridin-2-ylmethoxy)pyridin-3-yl)-3,5-dimethylisoxazole] | ≤ 300 | 300 to 3000 | 3000 to 30000 | 300 to 3000 | – | – | – |
| COc1ncc(-c2c(C)noc2C)cc1NCc1nccs1 [Example 41, 5-(3,5-dimethylisoxazol-4-yl)-2-methoxy-N-(thiazol-2-ylmethyl)pyridin-3-amine] | ≤ 300 | ≤ 300 | 300 to 3000 | 300 to 3000 | – | – | – |
| COc1ncc(-c2c(C)noc2C)cc1NCc1cnoc1 [Example 42, 5-(3,5-dimethylisoxazol-4-yl)-N-(isoxazol-4-ylmethyl)-2-methoxypyridin-3-amine] | ≤ 300 | 300 to 3000 | 3000 to 30000 | 300 to 3000 | – | – | – |
| COc1ncc(-c2c(C)noc2C)cc1NCc1ccc2ccccc2c1 [Example 44, 5-(3,5-dimethylisoxazol-4-yl)-2-methoxy-N-(naphthalen-2-ylmethyl)pyridin-3-amine] | ≤ 300 | 3000 to 30000 | 3000 to 30000 | 3000 to 30000 | – | – | – |
| COc1ncc(-c2c(C)noc2C)cc1NCc1nc2ccccc2o1 [Example 46, N-(benzo[d]oxazol-2-ylmethyl)-5-(3,5-dimethylisoxazol-4-yl)-2-methoxypyridin-3-amine] | ≤ 300 | 300 to 3000 | 3000 to 30000 | 300 to 3000 | – | – | – |
| COc1ncc(-c2c(C)noc2C)cc1NCc1ccc2ccccc2n1 [Example 47, 5-(3,5-dimethylisoxazol-4-yl)-2-methoxy-N-(quinolin-2-ylmethyl)pyridin-3-amine] | ≤ 300 | – | – | – | Not Active | Not Active | Not Active |
| COc1ncc(-c2c(C)noc2C)cc1NCc1ccc(C#N)s1 [Example 50, 5-(((5-(3,5-dimethylisoxazol-4-yl)-2-methoxypyridin-3-yl)amino)methyl)thiophene-2-carbonitrile] | ≤ 300 | 300 to 3000 | 3000 to 30000 | – | – | – | Not Active |
| Cc1noc(C)c1-c1cnc(Oc2ccccc2)c(NCc2ccccn2)c1 [Example 51, 5-(3,5-dimethylisoxazol-4-yl)-2-phenoxy-N-(pyridin-2-ylmethyl)pyridin-3-amine] | ≤ 300 | 300 to 3000 | 3000 to 30000 | 300 to 3000 | – | – | – |
| Cc1noc(C)c1-c1cnc(Oc2ccccc2)c(NCc2nccs2)c1 [Example 52, 5-(3,5-dimethylisoxazol-4-yl)-2-phenoxy-N-(thiazol-2-ylmethyl)pyridin-3-amine] | ≤ 300 | 3000 to 30000 | 3000 to 30000 | 300 to 3000 | – | – | – |
| COc1ncc(-c2c(C)noc2C)cc1NCc1nc2ccccc2[nH]1 [Example 53, N-((1H-benzo[d]imidazol-2-yl)methyl)-5-(3,5-dimethylisoxazol-4-yl)-2-methoxypyridin-3-amine] | 300 to 3000 | – | – | 3000 to 30000 | Not Active | Not Active | – |

Continued, in another order:

| IC50 [1] [nM] | IC50 [2] [nM] | IC50 [3] [nM] | IC50 [4] [nM] | SMILES | c-myc activity [2] | Cell Proliferation activity [3] | IL-6 activity [4] |
| --- | --- | --- | --- | --- | --- | --- | --- |
| ≤ 300 | 3000 to 30000 | 300 to 3000 | 300 to 3000 | COc1ncc(-c2c(C)noc2C)cc1NCc1ccc(C#N)cc1F [Example 28, 4-(((5-(3,5-dimethylisoxazol-4-yl)-2-methoxypyridin-3-yl)amino)methyl)-3-fluorobenzonitrile] | – | – | – |
| ≤ 300 | 300 to 3000 | 300 to 3000 | ≤ 300 | COc1ncc(-c2c(C)noc2C)cc1NCc1ccc(C#N)c(F)c1 [Example 29, 4-(((5-(3,5-dimethylisoxazol-4-yl)-2-methoxypyridin-3-yl)amino)methyl)-2-fluorobenzonitrile] | – | – | – |
| ≤ 300 | – | 3000 to 30000 | 3000 to 30000 | COc1ncc(-c2c(C)noc2C)cc1OCc1ccc(C#N)cc1 [Example 30, 4-(((5-(3,5-dimethylisoxazol-4-yl)-2-methoxypyridin-3-yl)oxy)methyl)benzonitrile] | Not Active | – | – |
| ≤ 300 | 3000 to 30000 | 300 to 3000 | 300 to 3000 | COc1ncc(-c2c(C)noc2C)cc1OC(C)c1ccccc1 (stereo not drawn) [Example 31, 4-(6-methoxy-5-(1-phenylethoxy)pyridin-3-yl)-3,5-dimethylisoxazole] | – | – | – |
| ≤ 300 | 3000 to 30000 | 3000 to 30000 | 300 to 3000 | COc1ncc(-c2c(C)noc2C)cc1OCc1ccc(F)cc1 [Example 32, 4-(5-((4-fluorobenzyl)oxy)-6-methoxypyridin-3-yl)-3,5-dimethylisoxazole] | – | – | – |
| ≤ 300 | 300 to 3000 | 300 to 3000 | 300 to 3000 | COc1ncc(-c2c(C)noc2C)cc1NCc1cccnc1 [Example 33, 5-(3,5-dimethylisoxazol-4-yl)-2-methoxy-N-(pyridin-3-ylmethyl)pyridin-3-amine] | – | – | – |
| ≤ 300 | 3000 to 30000 | 3000 to 30000 | 300 to 3000 | COc1ncc(-c2c(C)noc2C)cc1Nc1ccc(C#N)cc1 [Example 35, 4-((5-(3,5-dimethylisoxazol-4-yl)-2-methoxypyridin-3-yl)amino)benzonitrile] | – | – | – |
| ≤ 300 | 300 to 3000 | 300 to 3000 | 3000 to 30000 | COc1ncc(-c2c(C)noc2C)cc1Nc1ccc(Cl)cc1 [Example 36, N-(4-chlorophenyl)-5-(3,5-dimethylisoxazol-4-yl)-2-methoxypyridin-3-amine] | – | – | – |
| ≤ 300 | 300 to 3000 | 300 to 3000 | 300 to 3000 | COc1ncc(-c2c(C)noc2C)cc1OCc1ccsc1 [Example 37, 4-(6-methoxy-5-(thiophen-3-ylmethoxy)pyridin-3-yl)-3,5-dimethylisoxazole] | – | – | – |
| ≤ 300 | 300 to 3000 | 3000 to 30000 | 300 to 3000 | Cc1noc(C)c1-c1cnc(Oc2ccccc2)c(NCc2ccccc2)c1 [Example 38, N-benzyl-5-(3,5-dimethylisoxazol-4-yl)-2-phenoxypyridin-3-amine] | – | – | – |
